Measured values from PubChem BioAssay (NCI).
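How tested: cells in 96-well plates exposed to compound for 48 hours at five concentrations. Here, GI50 denotes the concentration required for 50% inhibition of growth. The concentration for full growth arrest is given as TGI.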

The compounds below were run on PC-3 prostate (assay: NCI tumour cell line growth inhibition, 48 h).

Structure (SMILES) | GI50 [µM] | TGI [µM]
COc1ccc(-c2nn(-c3cccc(Cl)c3)cc2-c2nc(N)[nH]c(=O)c2C#N)cc1 | 6.3 | > 100
COC(=O)C(=O)CC(=O)c1cccc(OC)c1 | – | > 100
COc1cc2c3c(n(CCCN(CCO)CCO)c(=O)c2cc1OC)-c1cc2c(cc1C3=O)OCO2 | – | 2.12
CNCCn1c(=O)c2cc(OC)c(OC)cc2c2cnc3cc4c(cc3c21)OCO4 | 0.021 | 1.87
O=C(CCN1CCOCC1)Nc1cccc(-n2cc(-c3ccncc3)c(-c3ccc(Cl)c(O)c3)n2)c1 | 1.74 | 12.9
c1ccc(NCCSc2nc3ccccc3s2)cc1 | – | > 100
Oc1ccc(Oc2cnc3ccccc3n2)cc1 | 54.7 | > 100
O=C(NC1CCCCC1)c1ccc(Nc2ncnc3c2cnn3-c2ccccc2)cc1 | 11.8 | 44.8
N#CC(C#N)=C1CCCOc2c1ccc1ccccc21 | 39.8 | > 100
CCc1nc(Cl)c(Cl)c(Cl)n1 | – | > 100
CC(C)(C)c1cc(C(=O)/C=C/c2ccc(C(=O)O)cc2)cc(C(C)(C)C)c1 | – | 16.4
Cc1sc2c(c1C)C(c1ccc(Cl)cc1)=N[C@@H](CC(=O)Nc1ccc(OCCOCCOCCOCCNc3cccc4c3C(=O)N(C3CCC(=O)NC3=O)C4=O)cc1)c1nnc(C)n1-2 (stereo partly drawn) | < 0.02 | > 100
Cc1cc(NCCCCNc2ccnc3cc(Cl)ccc23)nc(Nc2ccc(C(=O)N3CCCCC3)cc2)n1 | 1.32 | 3.24

The compounds below were run on SK-MEL-5 melanoma (assay: NCI tumour cell line growth inhibition, 48 h).

Structure (SMILES) | TGI [µM] | GI50 [nM]
Cc1ccc(N2C(=O)N(c3ccc(C)cc3)C3(SC=NN3C)C2=O)cc1 (stereo not drawn) | > 100 | –
COc1ccc(-c2nn(-c3cccc(Cl)c3)cc2-c2nc(N)[nH]c(=O)c2C#N)cc1 | 15.9 | 4070
O=C1c2ccc3c4ccccc4n(-c4ccccc4)c3c2C(=O)N1c1ccc(Cl)cc1 | > 100 | –
Cc1ccc2c(c1-c1ccccc1)C(=O)OC2 | > 100 | –
NC(CCc1ncc(C(=O)O)s1)C(=O)O (stereo not drawn) | > 100 | –
CSc1ccc2c(cc1=O)[C@@H](NC(=O)c1cc(O)c(O)c(O)c1)CCc1cc(O)c(O)c(O)c1-2 | 36.1 | –
COC(=O)C(=O)CC(=O)c1cccc(OC)c1 | > 100 | –
COc1cc2c3c(n(CCCN(CCO)CCO)c(=O)c2cc1OC)-c1cc2c(cc1C3=O)OCO2 | 0.413 | < 15.9
CNCCn1c(=O)c2cc(OC)c(OC)cc2c2cnc3cc4c(cc3c21)OCO4 | 0.0254 | 10
O=C(CCN1CCOCC1)Nc1cccc(-n2cc(-c3ccncc3)c(-c3ccc(Cl)c(O)c3)n2)c1 | 2.36 | 621
COc1cc(-c2nnc3n2NC=C(C(=O)O)S3)cc(OC)c1OC | > 100 | –
c1ccc(NCCSc2nc3ccccc3s2)cc1 | 42.3 | –
Oc1ccc(Oc2cnc3ccccc3n2)cc1 | > 100 | 55700
C[P+](C)(C)c1ccccc1 | > 100 | –
O=C1c2ccccc2C(=O)N1C/C=N/NS(=O)(=O)c1ccc(Br)cc1 | > 100 | –
NC(=O)c1cn(Cc2ccccc2)c(=O)n1Cc1ccccc1 | > 100 | –
CCOC(=O)C(C)(c1c(C)[nH]c2ccccc12)c1c(C)[nH]c2ccccc12 | 31.1 | –
Cc1c(Cl)cccc1NC(=O)c1cccc([N+](=O)[O-])c1O | 15.5 | –
CC1COS(=O)O1 (stereo not drawn) | > 100 | –

Structure (SMILES) | TGI [µM] | GI50 [nM]
CC1CCC(C(C)(C)c2ccccc2)C(=O)C1 (stereo not drawn) | > 100 | –
O=C(NC1CCCCC1)c1ccc(Nc2ncnc3c2cnn3-c2ccccc2)cc1 | > 100 | 21700
O=C1CC2CCN(C(=O)c3ccccc3)CC2CCN1 (stereo not drawn) | > 100 | –
CCc1nc(Cl)c(Cl)c(Cl)n1 | > 100 | –
O=C1C=CC(=CC=C2C=CN(CCCCCCCCCCC(=O)NCCCCCCCCCCCC(=O)O)C=C2)C=C1 | > 100 | –
N#Cc1c(-c2ccco2)cc(-c2ccc(N)cc2)[nH]c1=O | > 100 | –
C=CCC1(C)CCCCC1(O)CS(=O)c1ccccc1 (stereo not drawn) | > 100 | –
C1COCCSC2=C(SCCO1)SC(=C1SC3=C(SCCOCCOCCS3)S1)S2 | > 100 | –
CC(C)(C)c1cc(C(=O)/C=C/c2ccc(C(=O)O)cc2)cc(C(C)(C)C)c1 | 14.7 | –
COc1cc(/C=N\O[Si](C)(C)C(C)(C)C)ccc1O[Si](C)(C)C(C)(C)C | > 100 | –
CC12CCC(=O)N1c1cccnc1N2 (stereo not drawn) | > 100 | –
Cc1sc2c(c1C)C(c1ccc(Cl)cc1)=N[C@@H](CC(=O)Nc1ccc(OCCOCCOCCOCCNc3cccc4c3C(=O)N(C3CCC(=O)NC3=O)C4=O)cc1)c1nnc(C)n1-2 (stereo partly drawn) | 27.5 | 195
CCOC(=O)C1=C(Nc2ccc(Br)cc2)OCC1=O | > 100 | –
CCOc1ccc(N=Cc2c3ccccc3nc3ccccc23)cc1 | > 100 | –
Nc1ccc(C2=N/C(=C\c3cccc(N)c3)C(=O)O2)cc1 | > 100 | –
CC(=O)[CH-]C(=O)c1ccccc1.CC(=O)[CH-]C(=O)c1ccccc1.O=S(=O)([O-])c1cc([O-])c2c([O-])cc(S(=O)(=O)[O-])cc2c1.[Na+].[Ti+4] | > 100 | > 100000
Cc1cc(NCCCCNc2ccnc3cc(Cl)ccc23)nc(Nc2ccc(C(=O)N3CCCCC3)cc2)n1 | 3.07 | 1700
NCCN.O=C([O-])[O-].O=C([O-])[O-].[Co+3].[K+] | > 100 | > 100000
C1=NC(N(Cc2ccccc2)Cc2ccccc2)N(Cc2ccccc2)N1 (stereo not drawn) | 27.3 | –

These compounds were tested on SF-268 CNS (assay: NCI tumour cell line growth inhibition, 48 h).

Structure (SMILES) | TGI [µM] | GI50 [µM]
CCc1cccc(C)c1NC(=O)CC1C(=O)Nc2ccccc2S1=O (stereo not drawn) | > 100 | –
Cc1ccc(N2C(=O)N(c3ccc(C)cc3)C3(SC=NN3C)C2=O)cc1 (stereo not drawn) | > 100 | –
COc1ccc(-c2nn(-c3cccc(Cl)c3)cc2-c2nc(N)[nH]c(=O)c2C#N)cc1 | 35.4 | 5.86
O=C1c2ccc3c4ccccc4n(-c4ccccc4)c3c2C(=O)N1c1ccc(Cl)cc1 | > 100 | –
Cc1ccc2c(c1-c1ccccc1)C(=O)OC2 | > 100 | –
CCC[CH2][Sn]1([CH2]CCC)[O]CC(COc2c(Cl)cc(Cl)cc2Cl)[O]1 (stereo not drawn) | 2.68 | 1.15
CSc1ccc2c(cc1=O)[C@@H](NC(=O)c1cc(O)c(O)c(O)c1)CCc1cc(O)c(O)c(O)c1-2 | > 100 | –
COC(=O)C(=O)CC(=O)c1cccc(OC)c1 | > 100 | –
COc1cc2c3c(n(CCCN(CCO)CCO)c(=O)c2cc1OC)-c1cc2c(cc1C3=O)OCO2 | 7.26 | < 0.0332
CNCCn1c(=O)c2cc(OC)c(OC)cc2c2cnc3cc4c(cc3c21)OCO4 | 1.78 | < 0.01
O=C(CCN1CCOCC1)Nc1cccc(-n2cc(-c3ccncc3)c(-c3ccc(Cl)c(O)c3)n2)c1 | 14.4 | 2.81
COc1cc(-c2nnc3n2NC=C(C(=O)O)S3)cc(OC)c1OC | > 100 | –
c1ccc(NCCSc2nc3ccccc3s2)cc1 | > 100 | –
Oc1ccc(Oc2cnc3ccccc3n2)cc1 | > 100 | 50.3
C[P+](C)(C)c1ccccc1 | > 100 | –
O=C1c2ccccc2C(=O)N1C/C=N/NS(=O)(=O)c1ccc(Br)cc1 | > 100 | –
NC(=O)c1cn(Cc2ccccc2)c(=O)n1Cc1ccccc1 | > 100 | –
Cc1c(Cl)cccc1NC(=O)c1cccc([N+](=O)[O-])c1O | > 100 | –
CC1COS(=O)O1 (stereo not drawn) | > 100 | –
CC1CCC(C(C)(C)c2ccccc2)C(=O)C1 (stereo not drawn) | > 100 | –
O=C(NC1CCCCC1)c1ccc(Nc2ncnc3c2cnn3-c2ccccc2)cc1 | > 100 | 5.85
O=C1CC2CCN(C(=O)c3ccccc3)CC2CCN1 (stereo not drawn) | > 100 | –
N#CC(C#N)=C1CCCOc2c1ccc1ccccc21 | > 100 | > 100
CCc1nc(Cl)c(Cl)c(Cl)n1 | > 100 | –
O=C1C=CC(=CC=C2C=CN(CCCCCCCCCCC(=O)NCCCCCCCCCCCC(=O)O)C=C2)C=C1 | > 100 | –
N#Cc1c(-c2ccco2)cc(-c2ccc(N)cc2)[nH]c1=O | > 100 | –
